“Also recorded” adds a separate entry of the source. Counter-ions that a name gives are not always drawn. Like-named read-outs stand apart in the source and are kept apart here.
Tests used:
[1] = test system: primary cultures of rat hippocampal neurons; experiment: NMDA-induced increase in [Ca2+]i, Fluo-3 AM; format: cell-based; details: for reduction of NMDA-induced rise in [Ca2+]i: steroid 100 μM (3α5β 50 μM)
Protocol: (§1) Principally neuronal cultures were prepared from hippocampal tissue of fetal Sprague-Dawley rats on day 18 of embryonic development, as previously described (Brewer et al., Brain Research 494: 65-74 (1989)). Briefly, hippocampal cells were dissociated by trituration in Ca^2+/Mg^2+-free Hank's basic salt solution (Gibco) supplemented with 4.2 mM bicarbonate, 1 mM sodium pyruvate, 20 mM HEPES, 3 mg/ml bovine serum albumin (BSA). Dissociated cells were then pelleted by centrifugation (500×g, 4 min). […] Cells were then plated onto poly-L-lysine-coated 24-well culture dishes (Nunclon) at a density of 15,000 cell/cm^2 and maintained in a humidified atmosphere containing 5% CO2/95% air at 37° C. After 48 h, nonneuronal cell division was inhibited by a 48 h exposure to 1 μM cytosine arabinoside. Cultures were subsequently maintained in serum-free DMEM plus defined components and were used for experiments 16 to 24 days after plating.
DMSO was also added to controls to maintain a constant final DMSO concentration of […].
(§2) All data are expressed as mean±standard error of the mean. Statistical significance was evaluated using 95% confidence limits unless otherwise noted.

[2] = molecular target: T1, NR1100+NR2A NMDA receptor (Rattus norvegicus, UniProt P35439+Q00959); experiment: NMDA-induced current (INMDA), Xenopus oocytes, Example 2; format: cell-based; details: 100 μM NMDA, 100 μM steroid
T1 construct: expressed in transfected cells; host or cells: Xenopus oocytes co-injected with NR1100 and NR2A cRNA
Protocol: NR1100 (NR1G) and NR2A clones were kindly provided by Dr. R. S. Zukin (Albert Einstein College of Medicine, New York, N.Y.) and Dr. S. Nakanishi (Faculty of Medicine, Kyoto University, Kyoto, Japan), respectively. mRNA was prepared through in vitro transcription of NR1100 and NR2A cDNAs using the mMessage mMachine kit (Ambion, Tex.). On the day following isolation, batches of 20-40 selected Xenopus oocytes were injected with 50 nl of prepared RNA solution (0.5 ng NR1100 and 5 ng of NR2A mRNA/oocyte). Oocytes were maintained in glass petri dishes containing Barth's solution (84 mM NaCl, 1 mM KCl, 2.4 mM NaHCO3, 0.82 mM MgSO4, 0.41 mM CaCl2, 0.33 mM Ca(NO3)2, 2.5 mM pyruvate, 0.1 mg/ml gentamycin, 7.5 mM Tris/HCl, pH 7.4) in an incubator at 18° C. Oocytes were used for electrophysiological experiments 4-10 days after injection.
Recordings from oocytes were obtained using the two electrode voltage-clamp mode with an Axoclamp-2A amplifier (Axon Instruments). The resistance of microelectrodes, pulled from glass capillaries and filled with 3 M KCl solution, was 2.5-3.5 M. Membrane potential was clamped at −70 mV. Drugs were applied by a gravity-driven external perfusion system. Drug application and data acquisition were carried out with custom-written software implemented in the SuperScopeII programming language (GW Instruments, Somerville, Mass.).
The degree of modulation of NMDA-induced Ca^2+ influx, cell death, and currents is expressed as the percent change, defined as (I′/I−1)×100%, where I and I′ are the NMDA-induced responses in the absence and presence of modulator, respectively. All data are expressed as mean±standard error of the mean. Statistical significance was evaluated using 95% confidence limits unless otherwise noted.

[3] = Precipitation in assay buffer / culture medium; format: physicochemical; details: 0.5% DMSO, above 50 μM (3α5β) and 20 μM (pregnenolone)
Protocol: Steroids were initially dissolved in 100% DMSO, then diluted into assay buffer at a final DMSO concentration of 0.5% and sonicated for 20 min. All other solutions also contained 0.5% DMSO. Except where otherwise noted, the final steroid concentration was 100 μM.
(§3) Steroids were dissolved in DMSO (0.5% final concentration), and all treatment media contained 0.5% DMSO. […] Following exposure, cultures were washed 3 times with medium from sister cultures (conditioned medium). After the final wash, steroid or vehicle was reintroduced. Drugs were added to cultures in 25 μl of conditioned medium to yield a final volume of 0.25 ml per well. Except where otherwise noted, final steroid concentration was 100 μM.

[4] = test system: primary cultures of rat hippocampal neurons; experiment: NMDA-induced neuronal death, trypan blue exclusion; format: cell-based; details: for exacerbation of NMDA-induced neuronal death: acute NMDA, steroid 100 μM (pregnenolone 20 μM); for inhibition of NMDA-induced neuronal death: acute 30 μM NMDA, steroid 100 μM (3α5β 50 μM)
Protocol: as §1, §3
The ability of neurons to exclude trypan blue was used to quantitate cell viability (Dawson et al., Proc Natl Acad Sci USA 88: 6368-6371 (1991)). […] Cultures were then fixed with 4% paraformaldehyde in PBS for 30 min, at whichtime the fixative was replaced with PBS. The number of stained and unstained neurons were counted in 4 high-power fields per culture well, using an inverted phase contrast microscope under both bright field and phase contrast settings. Experiments were performed in triplicate, and all assessments were made with the experimenter blind to the treatment of each culture well. Percent cell death is expressed as follows: (number of trypan blue stained neurons)/(total number of neurons)×100%.
as §2

NR1100 NMDA receptor = molecular target: T2, NR1100 NMDA receptor (Rattus norvegicus, UniProt P35439); experiment: NMDA-induced currents, Xenopus oocytes injected with NR1100 cRNA only, Example 1; format: cell-based
T2 construct: expressed in transfected cells; host or cells: Xenopus oocytes injected with NR1100 cRNA only
Excerpt: (§4) Plasmids were obtained from the following individuals: Dr. Suzanne Zukin (Albert Einstein College of Medicine, Bronx, N.Y.), NR1100; Dr. Shigetada Nakanishi (Kyoto University Faculty of Medicine, Kyoto, Japan), NR2A; Dr. Stephen Heinemann (Salk Institute, San Diego, Calif.), GluR1 (flop), GluR3 (flop), and GluR6. Plasmids were linearized with BamH1 (NR1100), XhoI (NR2A, GluR1, GluR3) or XbaI (GluR6) prior to in vitro transcription with T3 (GluR1, GluR3, GluR6) or T7 (NR1100, NR2A) RNA polymerase using the Message Machine kit (Ambion, Austin, Tex.). […] RNA solutions (50-70 nl) were injected into oocytes for delivery of NR1100 (5 ng), NR1100:NR2A (1:10 ng), GluR1 (5 ng). GluR3 (5 ng), or GluR6 (20 ng). Oocytes were incubated in ND96 at 18-20° C. for 3-7 days prior to electrophysiological recording.
(§5) Steroid solutions were prepared as 70-100 mM frozen stocks in dimethyl sulfoxide (DMSO). The final DMSO concentration of all recording solutions was between 0.1% to 0.5% and was constant within an experiment.
(§6) Perfusion control and data acquisition were carried out using an automated oocyte electrophysiology workstation that was developed for the rapid collection of concentration-response data and real-time waveform analysis (Yaghoubi et al., Soc. Neurosci. Abstr. 20: 1109 (1995)). This system is implemented on a Macintosh IIci computer (Apple Computer, Cupertino, Calif.) equipped with MacA-DIOS II data acquisition and control hardware (GW Instruments, Somerville, Mass.). Drug application is controlled by the computer through a series of valves, using custom-written software based on the SuperScope II development environment, improving the efficiency and reproducibility of data collection. Experiments were carried out using an Axoclamp-2A voltage clamp amplifier (Axon Instruments, Foster City, Calif.) in two-electrode voltage clamp mode. Intracellular microelectrodes (1-3 MΩ) were filled with 3 M KCl. […] Membrane potential was clamped at −60 to −70 mV and stepped to −100 mV at the start of data acquisition unless otherwise stated. […] Current and voltage recordings were digitized at 100 Hz for analysis. GluR6 injected oocytes were treated for 10 min with 10 μg/ml concanavalin A to prevent fast desensitization.
(§7) Results are expressed as mean±S.E.M. Statistical comparisons were made using Student's t-test.

[5] = molecular target: T1, NR1100+NR2A NMDA receptor; experiment: NMDA-induced currents, Xenopus oocytes, Example 1; format: cell-based; details: for effect on NMDA induced current: NR1100+NR2A, sulfate
Excerpt: as §4, §5, §6, §7

[6] = test system: NMDA receptor (chick spinal cord neurons); details: Park-Chung et al. 1997, cited from earlier work
GluR1 AMPA receptor = molecular target: T3, GluR1 AMPA receptor (Rattus norvegicus, UniProt P19490); experiment: Kainate-induced currents, Xenopus oocytes injected with GluR1 cRNA; format: cell-based
T3 construct: expressed in transfected cells; host or cells: Xenopus oocytes injected with GluR1 cRNA
Excerpt: as §4, §5, §6, §7

GluR6 kainate receptor = molecular target: T4, GluR6 kainate receptor (Rattus norvegicus, UniProt P42260); experiment: Kainate-induced currents, Xenopus oocytes injected with GluR6 cRNA; format: cell-based
T4 construct: expressed in transfected cells; host or cells: Xenopus oocytes injected with GluR6 cRNA (concanavalin A treated)
Excerpt: as §4, §5, §6, §7

GluR3 AMPA receptor = molecular target: T5, GluR3 AMPA receptor (Rattus norvegicus, UniProt P19492); experiment: Kainate-induced currents, Xenopus oocytes injected with GluR3 cRNA; format: cell-based
T5 construct: expressed in transfected cells; host or cells: Xenopus oocytes injected with GluR3 cRNA
Excerpt: as §4, §5, §6, §7

T1 sequence (Q00959 23-1464, other chains not shown): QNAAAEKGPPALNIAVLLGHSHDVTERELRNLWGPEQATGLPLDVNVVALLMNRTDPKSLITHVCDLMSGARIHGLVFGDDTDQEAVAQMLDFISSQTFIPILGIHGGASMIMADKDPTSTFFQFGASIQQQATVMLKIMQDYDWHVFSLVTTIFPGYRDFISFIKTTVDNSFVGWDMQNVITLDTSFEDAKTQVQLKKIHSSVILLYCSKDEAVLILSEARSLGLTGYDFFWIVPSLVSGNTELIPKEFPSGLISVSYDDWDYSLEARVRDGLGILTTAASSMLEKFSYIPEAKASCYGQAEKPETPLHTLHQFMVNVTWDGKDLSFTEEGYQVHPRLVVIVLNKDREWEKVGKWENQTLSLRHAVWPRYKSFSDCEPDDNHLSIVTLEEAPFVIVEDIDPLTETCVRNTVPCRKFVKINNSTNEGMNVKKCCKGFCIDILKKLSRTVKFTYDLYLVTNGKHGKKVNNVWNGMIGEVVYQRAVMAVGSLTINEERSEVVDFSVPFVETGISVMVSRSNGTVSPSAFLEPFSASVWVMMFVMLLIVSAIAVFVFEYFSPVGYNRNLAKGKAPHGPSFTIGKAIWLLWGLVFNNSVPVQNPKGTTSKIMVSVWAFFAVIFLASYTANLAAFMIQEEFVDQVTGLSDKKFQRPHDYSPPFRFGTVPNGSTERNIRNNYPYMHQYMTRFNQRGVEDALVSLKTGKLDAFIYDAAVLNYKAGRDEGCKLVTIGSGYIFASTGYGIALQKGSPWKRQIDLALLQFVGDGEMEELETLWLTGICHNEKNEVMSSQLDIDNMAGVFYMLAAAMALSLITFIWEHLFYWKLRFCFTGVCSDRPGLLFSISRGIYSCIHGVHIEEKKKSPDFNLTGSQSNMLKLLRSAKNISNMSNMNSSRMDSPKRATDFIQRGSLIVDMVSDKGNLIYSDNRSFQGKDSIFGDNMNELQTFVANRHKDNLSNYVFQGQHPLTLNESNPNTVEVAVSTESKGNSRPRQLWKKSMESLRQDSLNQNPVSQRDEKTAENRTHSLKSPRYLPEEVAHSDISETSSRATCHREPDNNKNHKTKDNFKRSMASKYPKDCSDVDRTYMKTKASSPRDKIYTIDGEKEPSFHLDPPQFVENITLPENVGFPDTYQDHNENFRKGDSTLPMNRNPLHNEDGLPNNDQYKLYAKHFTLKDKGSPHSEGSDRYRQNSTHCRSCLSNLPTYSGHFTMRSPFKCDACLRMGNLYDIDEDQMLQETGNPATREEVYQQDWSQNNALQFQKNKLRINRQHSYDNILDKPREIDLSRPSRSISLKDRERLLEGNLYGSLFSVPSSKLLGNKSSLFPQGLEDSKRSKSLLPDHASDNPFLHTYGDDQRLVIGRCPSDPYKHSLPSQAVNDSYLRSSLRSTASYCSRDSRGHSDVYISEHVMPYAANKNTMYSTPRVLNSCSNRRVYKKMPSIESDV
T4 sequence (P42260 32-908): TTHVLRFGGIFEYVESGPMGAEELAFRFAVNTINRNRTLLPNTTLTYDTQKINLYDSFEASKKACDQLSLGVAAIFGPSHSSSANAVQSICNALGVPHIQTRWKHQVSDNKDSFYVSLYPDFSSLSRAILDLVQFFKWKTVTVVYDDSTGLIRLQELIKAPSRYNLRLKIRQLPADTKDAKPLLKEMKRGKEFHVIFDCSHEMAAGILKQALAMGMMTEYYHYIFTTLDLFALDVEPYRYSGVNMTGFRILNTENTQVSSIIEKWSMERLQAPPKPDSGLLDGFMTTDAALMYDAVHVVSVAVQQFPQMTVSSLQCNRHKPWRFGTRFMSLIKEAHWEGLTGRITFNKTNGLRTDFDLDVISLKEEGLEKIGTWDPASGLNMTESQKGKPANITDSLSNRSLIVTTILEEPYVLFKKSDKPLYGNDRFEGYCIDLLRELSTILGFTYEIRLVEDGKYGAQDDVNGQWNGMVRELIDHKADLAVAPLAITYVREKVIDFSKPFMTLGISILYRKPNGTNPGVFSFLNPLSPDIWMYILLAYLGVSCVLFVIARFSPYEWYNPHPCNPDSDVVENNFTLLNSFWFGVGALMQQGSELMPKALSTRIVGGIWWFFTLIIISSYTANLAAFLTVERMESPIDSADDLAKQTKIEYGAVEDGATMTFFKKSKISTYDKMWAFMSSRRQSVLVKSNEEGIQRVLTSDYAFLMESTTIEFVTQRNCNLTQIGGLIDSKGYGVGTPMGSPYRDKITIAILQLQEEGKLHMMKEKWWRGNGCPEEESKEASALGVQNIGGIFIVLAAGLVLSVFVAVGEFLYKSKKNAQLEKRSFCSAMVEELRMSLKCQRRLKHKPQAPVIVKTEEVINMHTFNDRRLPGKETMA
T5 sequence (P19492 23-888): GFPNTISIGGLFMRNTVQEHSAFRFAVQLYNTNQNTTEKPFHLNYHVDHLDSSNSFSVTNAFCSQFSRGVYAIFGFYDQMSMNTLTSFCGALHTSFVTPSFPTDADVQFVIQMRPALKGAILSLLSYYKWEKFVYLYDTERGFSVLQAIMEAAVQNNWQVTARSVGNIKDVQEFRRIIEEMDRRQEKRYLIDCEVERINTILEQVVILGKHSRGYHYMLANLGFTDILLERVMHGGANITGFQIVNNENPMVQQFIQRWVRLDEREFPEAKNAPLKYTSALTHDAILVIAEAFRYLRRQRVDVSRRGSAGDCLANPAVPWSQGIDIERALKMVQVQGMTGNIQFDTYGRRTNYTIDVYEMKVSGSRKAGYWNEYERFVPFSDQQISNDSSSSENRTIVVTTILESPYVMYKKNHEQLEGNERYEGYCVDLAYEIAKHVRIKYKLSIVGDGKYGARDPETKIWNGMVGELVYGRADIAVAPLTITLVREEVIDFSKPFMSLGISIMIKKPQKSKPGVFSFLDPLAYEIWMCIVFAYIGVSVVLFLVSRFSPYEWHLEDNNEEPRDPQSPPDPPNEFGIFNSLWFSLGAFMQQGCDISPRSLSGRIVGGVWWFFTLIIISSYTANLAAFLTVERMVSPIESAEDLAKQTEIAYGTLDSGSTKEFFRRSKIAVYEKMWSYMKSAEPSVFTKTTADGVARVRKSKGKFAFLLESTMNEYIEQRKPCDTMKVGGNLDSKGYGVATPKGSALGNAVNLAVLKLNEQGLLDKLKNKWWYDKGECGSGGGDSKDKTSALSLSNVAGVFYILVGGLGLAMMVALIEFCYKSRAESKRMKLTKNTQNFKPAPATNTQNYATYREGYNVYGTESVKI
T3 sequence (P19490 19-907): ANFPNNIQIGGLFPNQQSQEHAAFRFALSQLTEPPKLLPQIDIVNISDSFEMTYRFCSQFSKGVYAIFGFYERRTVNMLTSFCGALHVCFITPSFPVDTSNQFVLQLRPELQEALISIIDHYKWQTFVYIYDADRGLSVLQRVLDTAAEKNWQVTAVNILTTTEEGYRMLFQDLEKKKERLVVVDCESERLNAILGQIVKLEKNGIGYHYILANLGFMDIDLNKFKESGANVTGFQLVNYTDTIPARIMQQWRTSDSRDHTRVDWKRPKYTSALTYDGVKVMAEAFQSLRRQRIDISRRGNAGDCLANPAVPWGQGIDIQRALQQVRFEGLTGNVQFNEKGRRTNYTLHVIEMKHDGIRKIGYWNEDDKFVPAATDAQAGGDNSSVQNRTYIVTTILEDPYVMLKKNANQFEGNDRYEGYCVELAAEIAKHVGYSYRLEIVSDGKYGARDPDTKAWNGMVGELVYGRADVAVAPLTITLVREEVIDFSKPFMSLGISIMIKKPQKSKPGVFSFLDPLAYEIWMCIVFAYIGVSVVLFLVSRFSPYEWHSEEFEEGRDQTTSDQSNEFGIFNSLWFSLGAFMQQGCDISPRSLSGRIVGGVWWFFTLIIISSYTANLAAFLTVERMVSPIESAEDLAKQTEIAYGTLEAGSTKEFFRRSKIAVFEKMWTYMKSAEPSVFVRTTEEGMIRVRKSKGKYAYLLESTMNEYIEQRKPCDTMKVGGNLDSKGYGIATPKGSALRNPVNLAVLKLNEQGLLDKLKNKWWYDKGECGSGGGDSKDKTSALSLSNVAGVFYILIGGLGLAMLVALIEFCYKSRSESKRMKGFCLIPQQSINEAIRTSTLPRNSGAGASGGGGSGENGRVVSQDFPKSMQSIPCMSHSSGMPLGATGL

Compound | potentiation of INMDA [2] | exacerbation of NMDA-induced neuronal death [4] | reduction of NMDA-induced rise in [Ca2+]i ([1]; 5 μM NMDA) | inhibition of INMDA [2] | inhibition of NMDA-induced neuronal death [4] | also measured
CC(=O)[C@H]1CC[C@H]2[C@@H]3CC=C4C[C@@H](O)CC[C@]4(C)[C@H]3CC[C@]12C [pregnenolone] | 5±2% | ineffective |  |  |  | potentiation of NMDA-induced Ca2+ accumulation [1]: without effect; precipitation at higher concentrations [3]: higher concentrations tended to precipitate
pregnanolone formate [3α5βF] |  |  | no significant effect | significantly inhibits INMDA | do not exhibit significant neuroprotective activity | 
CC(=O)[C@H]1CC[C@H]2[C@@H]3CC[C@@H]4C[C@@H](OS(=O)(=O)O)CC[C@]4(C)[C@H]3CC[C@]12C [3β5βS, epipregnanolone sulfate] |  |  |  |  | 86±3% | EC50 (NR1100 NMDA receptor): 144 µM; EC50 [5]: 79 µM; modulation of NMDA-induced current [6]: strong inhibitors
CC(=O)C1CCC2C3CC=C4C[C@@H](OC(=O)CCC(=O)O)CC[C@]4(C)C3CC[C@]12C (stereo partly drawn) [PHS, pregnenolone hemisuccinate] | more than doubling the response |  |  |  |  | Percentage change in kainate response (GluR1 AMPA receptor): −71 ± 1(4) %; Percentage change in kainate response (GluR6 kainate receptor): −15 ± 2(3) %; inhibition of the response to kainate (GluR6 kainate receptor): 15%; Percentage change in kainate response (GluR3 AMPA receptor): −72 ± 3(3) %; Percentage change in NMDA response ([5]; NR1100 + NR2A, steroid 100 μM, 100 μM NMDA, −100 mV): +118 ± 16(16) %
CC(=O)[C@H]1CC[C@H]2[C@@H]3CC[C@@H]4C[C@H](O)CC[C@]4(C)[C@H]3CC[C@]12C [3α5β, pregnanolone] |  |  | no significant effect | inactive | do not exhibit significant neuroprotective activity | precipitation at higher concentrations [3]: higher concentrations tended to precipitate
CC(=O)[C@H]1CC[C@H]2[C@@H]3CC[C@H]4C[C@@H](OS(=O)(=O)O)CC[C@]4(C)[C@H]3CC[C@]12C [3α5αS, 3α-hydroxy-5α-pregnan-20-one sulfate] |  |  |  |  | 47±12% | effect on NMDA induced current [5]: 8±8%; modulation of NMDA-induced current ([6]; sulfate): weaker inhibitor
CC(=O)[C@H]1CC[C@H]2[C@@H]3CC[C@@H]4C[C@H](OC(=O)C(=O)O)CC[C@]4(C)[C@H]3CC[C@]12C [3α5βHO, pregnanolone hemioxylate] |  |  | approximately 40% | about equally effective in inhibiting INMDA | 35±6% | 
CC(=O)[C@H]1CC[C@H]2[C@@H]3CC[C@@H]4C[C@H](OC(=O)CCCC(=O)O)CC[C@]4(C)[C@H]3CC[C@]12C [3α5βHG, pregnanolone hemiglutarate] |  |  | approximately 40% | about equally effective in inhibiting INMDA | 38±6% | 
CC(=O)[C@H]1CC[C@H]2[C@@H]3CC[C@H]4C[C@@H](OS(=O)(=O)O)CC[C@]4(C)[C@H]3CC[C@]12C [3β5αS, 3β-hydroxy-5α-pregnan-20-one sulfate] |  | 40±7% |  |  |  | effect on NMDA induced current [5]: 33±13%; modulation of NMDA-induced current ([6]; sulfate): weakly potentiates
CC(=O)[C@H]1CC[C@H]2[C@@H]3CC=C4C[C@@H](OC(=O)CCCC(=O)O)CC[C@]4(C)[C@H]3CC[C@]12C [PHG, pregnenolone hemiglutarate] | more than doubling the response | 54±9% |  |  |  | potentiation of NMDA-induced Ca2+ accumulation [1]: 146±29%
CC(=O)[C@H]1CC[C@H]2[C@@H]3CC=C4C[C@@H](OC=O)CC[C@]4(C)[C@H]3CC[C@]12C [PF, pregnenolone formate] | little activity | ineffective |  |  |  | potentiation of NMDA-induced Ca2+ accumulation ([1]; 5 μM NMDA, steroid 100 μM (pregnenolone 20 μM)): without effect
CC(=O)[C@H]1CC[C@H]2[C@@H]3CC=C4C[C@@H](OC(=O)C(=O)O)CC[C@]4(C)[C@H]3CC[C@]12C [PHO, pregnenolone hemioxylate] | little activity; also recorded: does not enhance the NMDA-induced current | 48±12% |  |  |  | potentiation of NMDA-induced Ca2+ accumulation [1]: 62±17%

From patent US6623933B1 (priority 1999, dated 2003)
